Data on nine compounds can be found in US9335332B2, “Nicotinamide phosphoribosyltransferase (NMPRTase) inhibitor for glioma therapy” (COUNCIL OF SCIENTIFIC AND INDUSTRIAL RESEARCH, priority 2010, dated 2016).

Experiment [1] addresses T1, NMPRTase (Homo sapiens, UniProt P43490).
T1 construct: To prepare cytoplasmic extract, as source of NMPRTase, logarithmically growing U87 glioblastoma cells were collected; endogenous in cells; host or cells: U87 glioblastoma cells (cytoplasmic extract)
The experiment is described as follows: NMPRTase assay: conversion of 14[C]-nicotinamide to 14[C]-NAD by U87 cell extract. The conditions noted are these: 14[C]-NAD formed, FIG. 2C, 3A and 3B. Format: biochemical. The method, then:
In accordance with the inventive steps, the measurement of NMPRTase activity was carried. To prepare cytoplasmic extract, as source of NMPRTase, logarithmically growing U87 glioblastoma cells were collected by centrifugation and washed three times with Ca^2+, Mg^2+ free PBS. The cells pellet (2 to 3×10^7 cells) was suspended and lysed in 1 mL of 0.01 M NaH2PO4 (pH 7.4) by one round of freezing and slow thawing. The clear supernatant was recovered on ice after centrifugation at 23,000×g at 0° C. for 90 mins. […] of 1% protamine sulfate were added per ml of supernatant and incubated for 15 min on ice, followed by centrifugation at 23,000×g at 0° C. for 30 mins. The final supernatant was stored in small aliquots at −80° C. The NMPRTase activity was determined in 0.5 ml of reaction solution consisting of 5 mM MgCl2, 2 mM ATP, 0.5 mM phosphoribosyl PPI (pyrophosphate), 0.1 mM 14[C]-nicotinamide (specific activity: 50 mCi/mmol; American Radiolabeled Chemicals, Inc.) and 50 mM Tris (pH 8.8) at 37° C. […] The precipitate was removed by centrifugation at 2500×g at 4° C. for 10 min and the supernatant was stored at −20° C. The 14[C]-labeled components in the cell extracts were separated and identified using thin-layer chromatography (cellulose/1 M ammonium sulphate:ethanol (3:7). The chromatograms were run and exposed to imaging plates (Fuji) read using Phosphoimger (Fuji) the 14[C]-labeled NAD was quantified using Alpha Innotec software.
In accordance with the inventive steps, selected compounds were tested for inhibition of NMPRTase activity. Measurement of the ability of NMPRTase to convert 14[C]-nicotinamide to 14[C]-NAD was carried out. Most of the glioblastoma tissues have elevated levels of transcript and protein of PBEF1/NMPRTase. To prepare NMPRTase enzyme, firstly a panel of glioma derived cell lines was tested for NMPRTase transcript and protein levels.

Experiment [2] deals with glioma derived cell line U87. Nature of the experiment: MTT viability assay, U87 cells. The class given is cell-based. The conditions noted are these: Homo sapiens, U-87 MG, MTT at 48 hrs after addition of compounds. The method, then: Viability was measured by MTT assay at 48 hrs after addition of indicated compounds to U87 cells. The assays were carried out in triplicates and the mean value for each time point was used to generate the graph.
In accordance with the inventive steps, MTT assay was performed (Das, S.; El-Deiry, W. S.; Somasundaram, K. Efficient growth inhibition of HPV 16 E6-expressing cells by an adenovirus-expressing p53 homologue p73beta. Oncogene 2003, 22, 8394-402). A total of 1.5×10^3 cells/well were plated in a 96-well plate. After 24 h of plating, the cells were treated with indicated amounts of compounds. A measure of 20 μL (5 mg/mL) of MTT was added to each well 48 hrs after the addition of the compounds. MTT is a tetrazolium salt that is converted by living cells into purple formazan crystals. The medium was removed from the wells 3 hrs after MTT addition and 200 μL of DMSO (Dimethyl sulfoxide) was added to dissolve the formazan crystals, and then the absorbance was measured at 550 nm in an ELISA reader.
In accordance with the inventive steps, to correlate the NMPRTase inhibition property with cell growth inhibition, the ability of these compounds to inhibit the growth of a glioma derived cell line U87 was tested, which has elevated levels of PBEF1.

For experiment [3], the target named is T1, NMPRTase. The conditions noted are these: reference compounds, Table 1A; cited from earlier work.

T1 sequence (P43490 whole entry): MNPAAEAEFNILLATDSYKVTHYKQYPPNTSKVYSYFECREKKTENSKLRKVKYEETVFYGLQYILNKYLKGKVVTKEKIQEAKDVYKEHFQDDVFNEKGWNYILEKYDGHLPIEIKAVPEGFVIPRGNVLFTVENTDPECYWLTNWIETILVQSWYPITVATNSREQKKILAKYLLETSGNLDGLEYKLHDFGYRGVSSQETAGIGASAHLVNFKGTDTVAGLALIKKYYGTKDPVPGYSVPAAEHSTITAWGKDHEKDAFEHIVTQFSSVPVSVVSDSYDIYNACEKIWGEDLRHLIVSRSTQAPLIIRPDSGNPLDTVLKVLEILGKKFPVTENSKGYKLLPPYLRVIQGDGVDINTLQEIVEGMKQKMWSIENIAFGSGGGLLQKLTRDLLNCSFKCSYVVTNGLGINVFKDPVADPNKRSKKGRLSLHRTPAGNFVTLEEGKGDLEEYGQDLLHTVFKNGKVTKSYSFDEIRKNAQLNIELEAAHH

For orientation: IC50 means the concentration that gives 50% inhibition. Higher therefore signals lower potency. As for `O=C1c2cc(S(=O)(=O)[O-])ccc2-c2ccc(S(=O)(=O)[O-])cc21.[K+].[K+]` [Compound 1, Dipotassium 9-oxo-9H-fluorene-2,7-disulfonate], the “Inhibition of NMPRTase activity” value in experiment [1] is listed as “did not inhibit NMPRTase activity”. Besides, in experiment [2], the IC50 amounted to 335 µM.

Consider `CCOC(=O)c1nn(-c2ccccc2)c(=O)c2c(N)c(C#N)c(-c3ccco3)cc12` [Compound 2, Ethyl-5-amino-6-cyano-7-(2-furyl)-4-oxo-3-phenyl-3,4-dihydro-1-phthalazinecarboxylate], for which the IC50 in experiment [2] is > 500 µM. With `CC(=O)c1cc(-n2nc3ccccc3n2)c(O)c(-n2nc3ccccc3n2)c1O` [Compound 3, 1,[3,5-Di(2H-1,2,3-benzotriazol-2-yl)-2,4-dihydroxyphenyl]ethan-1-one], the IC50 in experiment [2] is > 500 µM. Turning to `CC12OC(c3ccccc3)=CC(c3ccccc3)=C1C(c1ccccc1)=CC2=O` (centres unmarked) [Compound 4, 7a-methyl-2,4,5-triphenyl-7,7a-dihydrocyclopenta[b]pyran-7-one], the “Inhibition of NMPRTase activity” value in experiment [1] was “inhibited NMPRTase activity”. For the same compound, in experiment [2], the IC50 was > 500 µM. Taken in the same sequence, the figures for `Nc1c(-c2ccc3ccccc3n2)c2ccc([N+](=O)[O-])cc2c(=O)n1Cc1ccccc1` [Compound 5, 3-amino-2-benzyl-7-nitro-4-(2-quinolyl)-1,2-dihydroisoquinolin-1-one] were “inhibited NMPRTase activity” and 325 µM. With `Cc1nn(-c2ccccc2)nc1CNC(=O)C1=Cc2ccccc2OC1` [Compound 6, N-[(5-methyl-2-phenyl-2H-1,2,3-triazol-4-yl)methyl]-2H-chromene-3-carboxamide], the IC50 in experiment [2] is > 500 µM. Turning to `O=C(/C=C/c1cccnc1)NCCCCC1CCN(C(=O)c2ccccc2)CC1` [FK866, reference compound], the “Inhibition of NMPRTase activity” value in experiment [1] is on record as “inhibited efficiently”. In experiment [2], 170 µM corresponded to half-maximal inhibition (IC50). In addition, the “Biochemical energy of binding” value in experiment [3] was -9.25 kcal/mol. For the compound `O=C(O)c1cccnc1` [Niacin, reference compound], the IC50 in experiment [2] is > 500 µM. Same read-out and setting: with `NC(=O)c1cccnc1` [Nicotinamide] the figure was > 500 µM.
